Experimental data reported in ChEMBL document CHEMBL1201862, “PubChem BioAssay data set” (2004).
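Following 48 hours of exposure in 96-well plates, responses at five concentrations were used to interpolate endpoints linearly. GI50 = concentration required for 50% inhibition of growth.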 Active and inactive are the calls of the source. Rule as the data show it: active = GI50 up to about 1.1 µM and inactive = higher.

Key:
Experiment in all cases: NCI tumour cell line growth inhibition, 48 h
[1] = tested on: DMS-114
[2] = tested on: SNB-78
[3] = tested on: KM-20L2
[4] = tested on: RXF 631
[5] = tested on: DLD-1
[6] = tested on: HOP-18
[7] = tested on: DMS-273
[8] = tested on: XF498
[9] = tested on: M19-MEL

Row | SMILES | GI50 [1] | GI50 [2] | GI50 [3] | GI50 [4] | GI50 [5] | GI50 [6] | GI50 [7] | GI50 [8] | GI50 [9]
1 | Cc1cc2occ(-c3ccc(Cl)cc3)c2c(=O)o1 | > 100 µM (inactive) | > 100 µM (inactive) | > 100 µM (inactive) | > 100 µM (inactive) | 76 µM (inactive) | > 100 µM (inactive) | > 100 µM (inactive) | – | –
2 | N#C/N=C(/NCc1ccccc1)N(Cc1ccccc1)Cc1ccccc1 | > 10 µM (inactive) | – | > 10 µM (inactive) | – | > 10 µM (inactive) | – | > 10 µM (inactive) | > 10 µM (inactive) | > 10 µM (inactive)
3 | COc1ccc(OC)c(/C=N/N=C(\N)NO)c1 | 14.9 µM (inactive) | 82.6 µM (inactive) | – | 37.6 µM (inactive) | 17.2 µM (inactive) | – | 6.31 µM (inactive) | 18 µM (inactive) | 61 µM (inactive)
4 | C[C@H]1C=C2C(=O)O[C@H]3CC[C@@H](C1)[C@@]23O | 2.62 µM (inactive) | 2.82 µM (inactive) | 4.91 µM (inactive) | – | 2.7 µM (inactive) | 3.18 µM (inactive) | – | – | 3.76 µM (inactive)
5 | CC(Oc1ccc(OCC2CCCCC2)cc1)C(=O)O (stereo not given) | > 100 µM (inactive) | > 100 µM (inactive) | – | – | > 100 µM (inactive) | > 100 µM (inactive) | > 100 µM (inactive) | > 100 µM (inactive) | > 100 µM (inactive)
6 | O=C1c2cccc3cc([N+](=O)[O-])cc(c23)C(=O)N1CCNCCNCCNCCN1C(=O)c2cccc3cc([N+](=O)[O-])cc(c23)C1=O | – | 0.0553 µM (active) | 0.01 µM (active) | – | < 0.001 µM (active) | 0.149 µM (active) | < 0.001 µM (active) | – | –
7 | Cc1cc(C)nc(NS(=O)(=O)c2ccc(Nc3c4ccccc4nc4c(C(=O)Nc5ccc(S(N)(=O)=O)cc5)cccc34)cc2)n1 | > 100 µM (inactive) | > 100 µM (inactive) | > 100 µM (inactive) | – | 71.8 µM (inactive) | 51.6 µM (inactive) | 92.5 µM (inactive) | > 100 µM (inactive) | 94.2 µM (inactive)
8 | CCN(CCCl)CCCNc1c2ccccc2nc2ccc(OC)cc12 | 0.314 µM (active) | 0.357 µM (active) | 0.181 µM (active) | – | 0.084 µM (active) | – | 0.059 µM (active) | 0.116 µM (active) | 0.216 µM (active)
9 | OC1(C(Sc2ccccc2)Sc2ccccc2)CCCCCC1 | 27.1 µM (inactive) | 74.1 µM (inactive) | 2.81 µM (inactive) | – | 38.4 µM (inactive) | – | 27.8 µM (inactive) | 13.6 µM (inactive) | 35.2 µM (inactive)
10 | CCCCc1c2c(nc3c1CCc1cc(C=O)c(N)nc1-3)/C(=C/c1ccccc1)CCC2 | > 100 µM (inactive) | > 100 µM (inactive) | > 100 µM (inactive) | – | – | > 100 µM (inactive) | > 100 µM (inactive) | 44.4 µM (inactive) | > 100 µM (inactive)
11 | O=C(Nc1nc2ncn(CCI)c2c(=O)[nH]1)c1ccccc1 | – | > 56.1 µM (inactive) | > 100 µM (inactive) | > 100 µM (inactive) | – | > 56.1 µM (inactive) | > 100 µM (inactive) | 20.4 µM (inactive) | > 100 µM (inactive)
12 | CC(=O)OC1CCC2C(=CCC3C2(C)C(=O)CC2(C)C(C4(C)OC(C(C)C)=CC4=O)C(O)CC32C)C1(C)C (stereo not given) | 25.8 µM (inactive) | 78.3 µM (inactive) | 17.9 µM (inactive) | – | 32.5 µM (inactive) | – | 23.3 µM (inactive) | 31.3 µM (inactive) | 12.6 µM (inactive)
13 | Cc1ccccc1NC(=O)C(=O)C(C(=O)c1ccccc1F)C1OC(=O)c2ccccc21 (stereo not given) | 10.2 µM (inactive) | 13.3 µM (inactive) | 38.3 µM (inactive) | 26.9 µM (inactive) | 22.2 µM (inactive) | 23.4 µM (inactive) | 23.3 µM (inactive) | – | –
14 | c1ccc(C(c2ccccc2)c2ccncc2)cc1 | > 100 µM (inactive) | > 100 µM (inactive) | > 100 µM (inactive) | > 100 µM (inactive) | > 100 µM (inactive) | > 100 µM (inactive) | > 100 µM (inactive) | > 100 µM (inactive) | > 100 µM (inactive)
15 | CC(O)C(NC(=O)c1ccccc1)C(=O)N(Cc1ccccc1)Cc1ccccc1 (stereo not given) | > 100 µM (inactive) | > 100 µM (inactive) | > 100 µM (inactive) | > 100 µM (inactive) | > 100 µM (inactive) | 37 µM (inactive) | > 100 µM (inactive) | > 100 µM (inactive) | > 100 µM (inactive)
16 | O=C(Nc1ccccc1[N+](=O)[O-])C(=O)C(C(=O)c1ccccc1-c1ccccc1)C1OC(=O)c2ccccc21 (stereo not given) | 13.6 µM (inactive) | 20.1 µM (inactive) | 18.2 µM (inactive) | 13.4 µM (inactive) | 21.4 µM (inactive) | 14.1 µM (inactive) | 14.3 µM (inactive) | – | 12.6 µM (inactive)
17 | CCOC(=O)NC/C=C/CO | > 100 µM (inactive) | > 100 µM (inactive) | > 100 µM (inactive) | > 100 µM (inactive) | > 100 µM (inactive) | > 100 µM (inactive) | > 100 µM (inactive) | – | > 100 µM (inactive)
18 | COc1cc2c(c(O)c1C)C(=O)C(Cl)=CC2=O | 16.6 µM (inactive) | 12.8 µM (inactive) | 23.1 µM (inactive) | 12.1 µM (inactive) | 17.4 µM (inactive) | 16.5 µM (inactive) | 19.2 µM (inactive) | 20 µM (inactive) | 7.98 µM (inactive)
19 | CC1OC(CC2C=CCc3c(O)c4c(c(O)c32)C(=O)c2ccccc2C4=O)CC(NC(=O)C(F)(F)F)C1O (stereo not given) | 10 µM (inactive) | 4.18 µM (inactive) | 16.3 µM (inactive) | – | 7.38 µM (inactive) | – | 6.32 µM (inactive) | 1.91 µM (inactive) | 8.22 µM (inactive)
20 | C[S+]([O-])c1cc(=O)c2ccccc2s1 (stereo not given) | 4.2 µM (inactive) | 7.52 µM (inactive) | 6.25 µM (inactive) | – | 2.14 µM (inactive) | 10.3 µM (inactive) | 8.67 µM (inactive) | 4.1 µM (inactive) | 6.03 µM (inactive)
21 | N#CC(C(=O)C(=O)Nc1c(Cl)cccc1Cl)c1ccccc1 (stereo not given) | > 10 µM (inactive) | > 10 µM (inactive) | > 10 µM (inactive) | > 10 µM (inactive) | > 10 µM (inactive) | > 10 µM (inactive) | > 10 µM (inactive) | > 100 µM (inactive) | > 10 µM (inactive)
22 | Oc1cc2c(cc1O)-c1[nH]ncc1CC2 | 16.5 µM (inactive) | 80.4 µM (inactive) | 38.5 µM (inactive) | – | 52.5 µM (inactive) | 6.15 µM (inactive) | 42.1 µM (inactive) | 27.6 µM (inactive) | 40.7 µM (inactive)
23 | Cc1ccc(Sc2ccccc2N)cc1 | 43.4 µM (inactive) | 84.7 µM (inactive) | 39.9 µM (inactive) | 29 µM (inactive) | – | 77.8 µM (inactive) | 30.8 µM (inactive) | – | 41.6 µM (inactive)
24 | CC(C)(C)c1ccc(OCCOCCOc2ccc(C(C)(C)C)cc2S(=O)(=O)Nc2ccc([N+](=O)[O-])cc2)c(S(=O)(=O)Nc2ccc([N+](=O)[O-])cc2)c1 | 9.42 µM (inactive) | 15.2 µM (inactive) | – | 6.82 µM (inactive) | 38.6 µM (inactive) | 9.75 µM (inactive) | 7.94 µM (inactive) | – | 6.11 µM (inactive)
25 | CCc1cccc(C(C)C)c1NC(=O)CCl | – | > 100 µM (inactive) | > 100 µM (inactive) | 19.7 µM (inactive) | > 100 µM (inactive) | – | > 100 µM (inactive) | > 100 µM (inactive) | 58.3 µM (inactive)
26 | Cc1c(-c2coc(-c3ccc(Cl)cc3)n2)c(=O)n(-c2ccccc2)n1C | – | > 100 µM (inactive) | > 100 µM (inactive) | – | > 100 µM (inactive) | – | > 100 µM (inactive) | 19.1 µM (inactive) | > 100 µM (inactive)
27 | CC(=O)OCSc1ncnc2c1ncn2CN1CCOCC1 | 6.53 µM (inactive) | > 100 µM (inactive) | 7.59 µM (inactive) | – | 6.55 µM (inactive) | 40.1 µM (inactive) | 5.11 µM (inactive) | – | 59 µM (inactive)
28 | COc1cc(/C=C/c2ccncc2)cc(OC)c1OC | > 100 µM (inactive) | 96.2 µM (inactive) | 65.5 µM (inactive) | 31.6 µM (inactive) | > 100 µM (inactive) | 70.8 µM (inactive) | 96.6 µM (inactive) | 22.4 µM (inactive) | –
